# Experimental data: US20230114728A1 (Venatorx Pharmaceuticals, Inc., priority 2019, published 2023)
# Where two headings read alike, the source gives them in different places.
# Legend:
# P. aeruginosa PBP3 = molecular target: T1, P. aeruginosa PBP3 (Pseudomonas aeruginosa, UniProt G3XD46); assay: Bocillin-FL fluorescence polarization competition binding assay, P. aeruginosa PBP3; conditions: fluorescence polarization competition binding assay using Bocillin-FL
# T1 construct: made in house
# Source text: (§1) Example I: Experimental Method for Penicillin-Binding Protein Binding Assays with Bocillin-FL Via Fluorescence Polarization
# (§2) To determine the ability of boronic acid-based test PBP inhibitors to bind Penicillin Binding Proteins (PBPs), Bocillin-FL (fluorescently-labeled penicillin V; ThermoFisher Scientific) was used in a fluorescence polarization (FP) competition binding assay to assess inhibitor binding to PBP2, PBP3 or PBP4 from Escherichia coli (K12), PBP3 from Pseudomonas aeruginosa (PA01), PBP1a, PBP2 and PBP3 from Acinetobacter baumannii (ATCC 19606), and PBP2 from Neiserria gonorrheae (FA19). PBPs were cloned and purified as described previously (E. coli PBPs, King, D. T, et al., ACS Infectious Diseases 2015, 1, 175-184; P. aeruginosa PBP3, Han et. al., PNAS 2010, 107 (51), 22002-22007; A. baumannii PBPs, Penwell et. al., Antimicrob. Agents Chemother. 2015, 59 (3), 1680-1689; N. gonorrhoeae PBP2, Singh et. al., J Biol. Chem. 2019, 294 (38), 14020-14032). To establish assay conditions for competition binding, enzyme titration/saturation binding experiments were initially performed. Bocillin-FL was prepared at 0.2 μM in a buffer comprised of 50 mM Hepes (pH 8.0), 300 mM NaCl and 5% (v/v) glycerol for reactions with E. coli, P. aeruginosa and N. gonorrhoeae PBPs, and 25 mM Tris (pH 8.0), 200 mM NaCl and 10% (v/v) glycerol and 0.005% (v/v) Tween 20 for reactions with A. baumannii PBPs. Saturation binding was performed by mixing 40 μl of PBP solutions ranging in concentrations from 0-24 μM with 40 μl of the 0.2 μM Bocillin-FL solution, in individual wells of a black 384-well microplate. FP was measured immediately upon mixing (Excitation, 490 nm; Emission, 520 nm; g-factor, 0.96), using a Cytation3 (BioTek) microplate reader and measured continuously for up to 120 minutes. […] The competition binding assay (80 μl final volume) was validated using beta-lactams and PBPs at final concentrations of: 1.5 μM, E. coli PBP3; 0.75 μM, P. aeruginosa PBP3; 1 μM A. baumannii PBP1a; 2.5 μM A. baumannii PBP2; 0.2 μM A. baumannii PBP3; and […] N. gonorrhoeae PBP2. Bocillin-FL was at 0.1 μM (0.05 μM with A. baumannii PBP1a) and beta-lactam concentrations ranged from 0-1000 μM. […] Bocillin-FL was added and the FP immediately measured for up to 60 minutes (90 minutes for E. coli PBP2). […] The beta-lactam potency was reported as the concentration of beta-lactam required to reduce the amount of PBP bound-Bocillin-FL by 50% (EC50). […] Binding assays for boronic acid PBP inhibitors were performed in an identical fashion for the respective PBPs
# A. baumannii ATCC 19606 = assay: Broth microdilution MIC in CAMHB; format: cell-based; conditions: Acinetobacter baumannii, ATCC19606; MHB; read-out: Minimum Inhibitory Concentration, A. baumannii ATCC 19606
# Experimental: (§3) Example III: In Vitro Antibacterial Assays
# (§4) To determine the ability of test compounds to inhibit the growth of bacterial strains, classic cell based broth microdilution minimum inhibitory concentration (MIC) assays were employed. MIC assays are performed according to CLSI methods except where otherwise noted (CLSI, 2018 and CLSI, 2019). The reference type strain E. coli ATCC 25922; the wild-type parent strain E. coli AG100; the hyper-permeable E. coli 901C and E. coli D22; and the E. coli AG100A strain lacking the acrAB efflux pump encoding genes were used to determine the ability of the PBP inhibitors to penetrate the outer membrane of gram-negative bacteria and inhibit bacterial growth. […] The P. aeruginosa ATCC 27853 and A. baumannii ATCC 19606, along with the hyper-permeable P. aeruginosa ATCC 35151 and an engineered efflux pump-compromised strain of P. aeruginosa (ΔmexAB-oprM) were used to determine the ability of PBP inhibitors to penetrate the outer membrane of P. aeruginosa and A. baumannii and assess antibacterial activity against these important gram-negative organisms.
# (§5) Briefly, cryo-preserved bacterial cultures of challenge strains are streaked for isolation on appropriate agar medium, in this case cation-adjusted Mueller Hinton agar. Following incubation to allow growth of the colonies, plates are sealed with parafilm and stored refrigerated for up to two weeks. For preparation of assay inoculum and to ensure low variability, at least 5 colonies are picked from the agar plates with an inoculating loop and aseptically transferred to a culture tube containing 3 mL of cation-adjusted Mueller Hinton broth (CAMHB). The broth culture is grown for 3-5 hours at 37° C. with shaking at 200 rpm. Meanwhile, 2-fold serial dilutions of test compounds are conducted in a 96-well plate with a final volume of 75 μL per well at 2-fold the final desired concentration. After the dilution plates are set up the growing cultures are then diluted in a cuvette containing CAMHB and the optical density is measured at 600 nm. The inoculum is diluted such that 75 μL of this culture in CAMHB results in a starting bacterial concentration of 2-8×10^5 CFU/mL when added to the dilution plates. The plates are incubated for 16-20 hours for Enterobacteriaceae and Pseudomonas and 20-24 hours for Acinetobacter at 37° C. The MIC values are read visually as the lowest concentration well with no bacterial growth.
# E. coli 901C = assay: Broth microdilution MIC in CAMHB; format: cell-based; conditions: Escherichia coli, MHB, read-out: Minimum Inhibitory Concentration, E. coli 901C
# Experimental: as §3, §4, §5
# E. coli AG100A = assay: Broth microdilution MIC in CAMHB; format: cell-based; conditions: Escherichia coli, read-out: Minimum Inhibitory Concentration, E. coli AG100A
# Experimental: as §3, §4, §5
# E. coli AG100 = assay: Broth microdilution MIC in CAMHB; format: cell-based; conditions: Escherichia coli, MHB, read-out: Minimum Inhibitory Concentration, E. coli AG100
# Experimental: as §3, §4, §5
# E. coli ATCC 25922 = assay: Broth microdilution MIC in CAMHB; format: cell-based
# Experimental: as §3, §4, §5
# E. coli D22 = assay: Broth microdilution MIC in CAMHB; format: cell-based; conditions: Escherichia coli, MHB, read-out: Minimum Inhibitory Concentration, E. coli D22
# Experimental: as §3, §4, §5
# [1] = system: K. pneumoniae 848844 producing SHV-11 and KPC-2; assay: Broth microdilution MIC in CAMHB; format: cell-based; conditions: Klebsiella pneumoniae, read-out: Minimum Inhibitory Concentration, K. pneumoniae 848844
# Experimental: as §3, §4, §5
# [2] = system: K. pneumoniae SI-117 producing VIM-1; assay: Broth microdilution MIC in CAMHB; format: cell-based; conditions: Klebsiella pneumoniae, read-out: Minimum Inhibitory Concentration, K. pneumoniae SI-117
# Experimental: as §3, §4, §5
# [3] = system: K. pneumoniae UMM producing SHV-5 and KPC-2; assay: Broth microdilution MIC in CAMHB; format: cell-based; conditions: Klebsiella pneumoniae, read-out: Minimum Inhibitory Concentration, K. pneumoniae UMM
# Experimental: as §3, §4, §5
# [4] = system: P. aeruginosa (ΔmexAB-oprM); assay: Broth microdilution MIC in CAMHB; format: cell-based; conditions: Pseudomonas aeruginosa, read-out: Minimum Inhibitory Concentration, P. aeruginosa ΔmexAB-OprM
# Experimental: as §3, §4, §5
# P. aeruginosa ATCC 27853 = assay: Broth microdilution MIC in CAMHB; format: cell-based; conditions: Pseudomonas aeruginosa, ATCC27853; MHB; read-out: Minimum Inhibitory Concentration, P. aeruginosa ATCC 27853
# Experimental: as §3, §4, §5
# P. aeruginosa ATCC 35151 = assay: Broth microdilution MIC in CAMHB; format: cell-based; conditions: Pseudomonas aeruginosa, ATCC35151; MHB; hyper-permeable strain; read-out: Minimum Inhibitory Concentration, P. aeruginosa ATCC 35151
# Experimental: as §3, §4, §5
# E. coli K12 PBP3 = molecular target: T2, E. coli K12 PBP3 (Escherichia coli, UniProt P0AD68); assay: biochemical; format: binding
# T2 construct: made in house
# Source text: as §1, §2
# [5] = wild-type parent strain E. coli AG100
# [6] = Escherichia coli, ATCC25922; MHB; E. coli ATCC 25922; read-out: Minimum Inhibitory Concentration, E. coli 25922
# T2 sequence (P0AD68 1-577): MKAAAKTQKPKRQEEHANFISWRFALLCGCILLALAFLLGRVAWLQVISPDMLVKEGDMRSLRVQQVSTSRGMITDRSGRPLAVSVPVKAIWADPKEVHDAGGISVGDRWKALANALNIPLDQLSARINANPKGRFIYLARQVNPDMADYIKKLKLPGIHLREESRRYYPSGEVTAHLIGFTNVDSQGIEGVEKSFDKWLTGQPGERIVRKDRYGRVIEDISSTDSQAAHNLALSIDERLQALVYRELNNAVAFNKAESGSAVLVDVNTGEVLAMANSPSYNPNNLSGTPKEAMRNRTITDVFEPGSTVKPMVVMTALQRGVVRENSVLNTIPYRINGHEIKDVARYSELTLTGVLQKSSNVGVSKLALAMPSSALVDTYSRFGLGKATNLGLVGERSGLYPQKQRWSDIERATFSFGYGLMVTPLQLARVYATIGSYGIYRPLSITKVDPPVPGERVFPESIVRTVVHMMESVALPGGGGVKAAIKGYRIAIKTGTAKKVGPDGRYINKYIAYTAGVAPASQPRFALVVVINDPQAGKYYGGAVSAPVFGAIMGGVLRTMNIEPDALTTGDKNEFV
# T1 sequence (G3XD46 whole entry): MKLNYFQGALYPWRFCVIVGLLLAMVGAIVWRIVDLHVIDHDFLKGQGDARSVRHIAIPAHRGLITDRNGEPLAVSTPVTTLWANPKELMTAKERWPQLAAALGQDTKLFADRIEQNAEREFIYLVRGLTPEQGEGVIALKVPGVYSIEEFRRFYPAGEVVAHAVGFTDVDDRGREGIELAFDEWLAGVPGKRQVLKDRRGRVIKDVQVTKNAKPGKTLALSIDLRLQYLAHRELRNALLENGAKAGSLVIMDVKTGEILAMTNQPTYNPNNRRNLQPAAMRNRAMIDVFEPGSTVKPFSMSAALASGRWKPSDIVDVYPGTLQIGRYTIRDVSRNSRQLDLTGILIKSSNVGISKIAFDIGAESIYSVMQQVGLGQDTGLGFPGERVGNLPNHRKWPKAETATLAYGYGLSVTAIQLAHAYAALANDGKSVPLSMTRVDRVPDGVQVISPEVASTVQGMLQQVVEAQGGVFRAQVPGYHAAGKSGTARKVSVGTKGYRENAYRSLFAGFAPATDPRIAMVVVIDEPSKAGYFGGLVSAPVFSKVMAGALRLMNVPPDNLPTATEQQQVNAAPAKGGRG
Compound,P. aeruginosa PBP3 Potency (P. aeruginosa PBP3),MIC (A. baumannii ATCC 19606),MIC (E. coli 901C; E. coli 901C (hyper-permeable)),MIC (E. coli AG100A),MIC (E. coli AG100; E. coli AG100 (wild-type parent)),"MIC (E. coli ATCC 25922; Escherichia coli, ATCC25922; E. coli ATCC 25922; MHB; read-out: Minimum Inhibitory Concentration, E. coli 25922)",MIC (E. coli D22; E. coli D22 (hyper-permeable)),MIC [1],MIC [2],MIC [3],MIC [4],MIC (P. aeruginosa ATCC 27853),MIC (P. aeruginosa ATCC 35151),MIC (E. coli 901C; hyper-permeable E. coli 901C),MIC (E. coli AG100; [5]),MIC (E. coli ATCC 25922; [6]),MIC (E. coli D22; hyper-permeable E. coli D22),EC50 (E. coli K12 PBP3)
"CCN1CCN(C(=O)N[C@H](C(=O)N[C@H]2Cc3cccc(C(=O)O)c3OB2O)c2ccc(C(=O)O)c(Cl)c2F)C(=O)C1=O (single isomer, unassigned) [Example 221]",C (C represents a potency between 10 and 30 μM),> 128 µg/mL,> 128 µg/mL,> 128 µg/mL,> 128 µg/mL,32 to 64 µg/mL,> 128 µg/mL,> 128 µg/mL,8 to 16 µg/mL,0.5 to 1 µg/mL,32 to 64 µg/mL,> 128 µg/mL,2 to 4 µg/mL,–,–,–,–,–
"CCN1CCN(C(=O)N[C@@H](C(=O)N[C@H]2Cc3cccc(C(=O)O)c3OB2O)c2ccc(C(=O)O)c(Cl)c2F)C(=O)C1=O (single isomer, unassigned) [Example 222]",D (D represents a potency <10 μM),> 128 µg/mL,–,> 128 µg/mL,–,–,–,> 128 µg/mL,2 to 4 µg/mL,< 0.25 µg/mL,32 to 64 µg/mL,> 128 µg/mL,0.5 to 1 µg/mL,> 128 µg/mL,> 128 µg/mL,32 to 64 µg/mL,> 128 µg/mL,–
"NCCN1CCCN(C(=O)N[C@H](C(=O)N[C@H]2Cc3cccc(C(=O)O)c3OB2O)c2c(F)cc(O)cc2F)C1=O (single isomer, unassigned) [Example 231]",–,> 128 µg/mL,–,> 128 µg/mL,–,–,–,> 128 µg/mL,> 128 µg/mL,32 to 64 µg/mL,> 128 µg/mL,> 128 µg/mL,8 to 16 µg/mL,> 128 µg/mL,> 128 µg/mL,> 128 µg/mL,> 128 µg/mL,30 to 500 µM
"NC1(CN2CCN(C(=O)N[C@@H](C(=O)N[C@H]3Cc4cccc(C(=O)O)c4OB3O)c3ccc(O)c(F)c3F)C(=O)C2=O)CC1 (single isomer, unassigned) [Example 236]",–,> 128 µg/mL,–,32 to 64 µg/mL,–,–,–,32 to 64 µg/mL,2 to 4 µg/mL,0.5 to 1 µg/mL,2 to 4 µg/mL,> 128 µg/mL,< 0.25 µg/mL,32 to 64 µg/mL,32 to 64 µg/mL,32 to 64 µg/mL,32 to 64 µg/mL,< 30 µM
"NC1(CN2CCN(C(=O)N[C@H](C(=O)N[C@H]3Cc4cccc(C(=O)O)c4OB3O)c3ccc(O)c(F)c3F)C(=O)C2=O)CC1 (single isomer, unassigned) [Example 237]",–,> 128 µg/mL,–,> 128 µg/mL,–,–,–,> 128 µg/mL,32 to 64 µg/mL,2 to 4 µg/mL,8 to 16 µg/mL,> 128 µg/mL,0.5 to 1 µg/mL,> 128 µg/mL,> 128 µg/mL,> 128 µg/mL,> 128 µg/mL,30 to 500 µM
"O=C(O)c1cccc2c1OB(O)[C@@H](NC(=O)C(NC(=O)N1CCN(CCF)C(=O)C1=O)c1ccc(O)c(F)c1F)C2 (stereo partly drawn) [Example 235, (3R)-3-(2-(2,3-difluoro-4-hydroxyphenyl)-2-(4-(2-fluoroethyl)-2,3-dioxopiperazine-1-carboxamido)acetamido)-2-hydroxy-3,4-dihydro-2H-benzo[e][1,2]oxaborinine-8-carboxylic acid]",–,> 128 µg/mL,–,32 to 64 µg/mL,–,–,–,32 to 64 µg/mL,2 to 4 µg/mL,< 0.25 µg/mL,8 to 16 µg/mL,> 128 µg/mL,0.5 to 1 µg/mL,32 to 64 µg/mL,32 to 64 µg/mL,8 to 16 µg/mL,32 to 64 µg/mL,< 30 µM
